2 compounds from US20070117770A1, “Human ribosomal DNA (rDNA) and ribosomal RNA (rRNA) nucleic acids and uses thereof” (Cylene Pharmaceuticals, Inc., priority 2005, published 2007) can be followed below.

In one experiment the target is MAPK1(h) (Homo sapiens, UniProt P27361). Briefly: Protein kinase inhibition assay. The experiment is classed as biochemical. Particulars: read-out: percent residual activity of MAPK1(h). On the procedure:
Certain compounds were tested for activity in protein kinase inhibition assays. All substrates were dissolved and diluted to working stocks in de-ionized water, apart from histone H1 (10× working stock in 20 mM MOPS pH 7.0), PDKtide (10× working stock in 50 mM Tris pH 7.0) ATF2 (which is typically stored at a 20× working stock in 50 mM Tris pH 7.5, 150 mM NaCl, 0.1 mM EGTA, 0.03% Brij-35, 50% glycerol, 1 mM benzamidine, 0.2 mM PMSF and 0.1% R-mercaptoethanol), KKLNRTLSFAEPG (SEQ ID NO:203) and RRRLSFAEPG (SEQ ID NO:204) (50 mM HEPES pH 7.4) and GGEEEEYFELVKKKK (SEQ ID NO:205) (20 mM MOPS pH 7.0). All kinases were pre-diluted to a 10× working concentration prior to addition into the assay. The composition of the dilution buffer for each kinase is detailed below.
In a final reaction volume of 25 μl, MAPK1 (h) (5-10 mU) is incubated with 25 mM Tris pH 7.5, 0.02 mM EGTA, 250 μM peptide, 10 mM MgAcetate and [gamma-33P-ATP] (specific activity approx. 500 cpm/pmol, concentration as required). The reaction is initiated by the addition of the MgATP mix. After incubation for 40 minutes at room temperature, the reaction is stopped by the addition of 5 μl of a 3% phosphoric acid solution. 10 μl of the reaction is then spotted onto a P30 filtermat and washed three times for 5 minutes in 75 mM phosphoric acid and once in methanol prior to drying and scintillation counting.

For a further experiment, the system named is A549 cells. Briefly: Cell localization assay (fluorescence microscope). The experiment is classed as cell-based. Particulars: 2 uM, one hour or two hours. How it is done:
A cell localization assay was utilized to determine cell localization for compounds that interacted with rRNA. In these studies, A549 cells were plated in borosilicate chamber slides. The cells were treated with 2 uM compound A-1 the next day for one hour or two hours, washed with PBS, fixed for 10 min in 4% paraformaldehyde and observed under a fluorescence microscope (Olympus) in the Ex360 nm/Em548 nm channel at 600× magnification. […] Accordingly, a compound tested in the assay was localized in cell nucleoli.

For a further experiment, the system named is nucleolin in A549 cells. Briefly: Cell nucleolin localization (immunofluorescence). The experiment is classed as cell-based. The conditions noted are these: 10 uM, two hours. How it is done: An assay was conducted to determine the effect of ribosomal nucleic acid interacting compounds on cell nucleolin location. In these studies, A549 cells were plated in borosilicate chamber slides. The cells were treated with 10 uM compound A-1 the next day for two hours, washed with phosphate buffered saline, fixed for 10 minutes in 4% paraformaldehyde, permeabilized for 5 minutes in a 1:1 ethanol:acetone mix, incubated with a 1:100 dilution of an anti-nucleolin monoclonal antibody (catalog no. RDI-NUCLEOLabm; Research Diagnostics, Inc.) in 5% donkey serum, followed by incubation with a 1:100 diluted TRITC-labeled secondary anti-mouse antibody and observed under a fluorescence microscope (e.g., Olympus) in the TRITC channel at 600× magnification. […] Accordingly, nucleolin was redistributed from the nucleolus to the nucleoplasm in cells treated with a compound tested in the assay.

For experiment [1], the target named is T1, nucleolin/nucleic acid ligand (Homo sapiens, UniProt P19338).
T1 construct: without the N-terminal acidic stretches domain
As to the kind of experiment: EMSA, interference with nucleolin/nucleic acid ligand interactions (ligands derived from human ribosomal DNA). The experiment is classed as binding. How it is done: The following assays assessed effects of compounds on interactions between nucleolin and nucleic acid ligands capable of forming quadruplex (QP) and hairpin (HP) secondary structures. Nucleic acid ligands tested were a cMyc QP DNA having nucleotide sequence 5′-[…]-3′ (SEQ ID NO: 176) and a HP pre-rRNA region to which nucleolin binds, having the sequence 5′-[…]-3′ (SEQ ID NO: 177). In the assays, recombinant nucleolin (˜250 nM), which was fused to maltose binding protein and had the sequence under accession number NM_005381 without the N-terminal acidic stretches domain, was incubated with each of the two ^32P-labeled nucleic acid ligands (10 or 250 nM). Nucleolin and the nucleic acid ligand were incubated in the presence or absence of a test compound of Formula A-1, B-1, C-6 or C-7 in an incubation buffer (12.5 mM Tris, pH 7.6, 60 mM KCl, 1 mM MgCl2, 0.1 mM EDTA, 1 mM DTT, 5% glycerol, 0.1 mg/ml BSA) for 30 minutes at room temperature. Structures for A-1 and B-1 are shown above and structures for C-6 and C-7 are shown hereafter: [drawing 17] The resulting complexes were separated on a 6% DNA retardation gel using 0.5× TBE with 20 mM KCl as a running buffer (i.e., electrophoresis mobility shift assay (EMSA)).
The assay also was conducted using nucleic acid ligands derived from human ribosomal DNA. Sequences of these nucleic acids are shown in the preceding example. […]

The subject of another experiment is rRNA synthesis, HCT-116. Briefly: PCR assay of rRNA synthesis from 45S rDNA (5' ETS probe). Format: cell-based. The conditions noted are these: various concentrations; two hour or four hour incubation (FIGS. 4A, 4B). On the procedure: Assays were conducted to determine the effects of compounds on rRNA synthesis from 45S rDNA. In particular, compound A-1 at various concentrations was incubated with cells and tested for an effect on rRNA synthesis after a two hour or four hour incubation with the compound. Synthesized rRNA was quantified by a polymerase chain reaction (PCR) assay. A primer/probe set was designed using Primer Express software and synthesized by Applied Biosystems. The 5′ ETS Probe utilized had the following sequence (@ its 3′ end): 6FAM-TTG ATC CTG CCA GTA GC-MGBNFQ (SEQ ID NO:227). The primer sequences were as follows:
Mix • 1 ug RNA • 2.5 ul 10× Taq Man buffer • 5.5 ul 25 mM MgCl2 • 5 ul of a mix of dNTP (500 uM each) • 1.2 ul random hexamer primer (2.5 uM stock) • 0.5 ul RNase inhibitor (0.4 units/ul) • 0.6 ul Reverse Transcriptase (1.2 units/ul) • bring to 25 ul total volume with water
Mix • 5 ul Reverse Transcriptase reaction product • 12.5 ul 2×PCR mix • 1 uM forward primer • 1 uM reverse primer • 0.5 uM Taq Man probe • 500 nM Rox • Adjust to 25 ul final volume with water
PCR cycles • 95 degrees C. 1 minute • 40 cycles of • 95 degrees C. 15 seconds • 60 degrees C. 1 minute.
Fluorescence of digested label was detected and quantified. […] The effect of other compounds on rRNA synthesis also were assessed in the assay, and provided in the table hereafter are IC50 values of selected compounds pertaining to rRNA synthesis and cMYC RNA synthesis.

MAPK1(h), sequence (P27361 whole entry): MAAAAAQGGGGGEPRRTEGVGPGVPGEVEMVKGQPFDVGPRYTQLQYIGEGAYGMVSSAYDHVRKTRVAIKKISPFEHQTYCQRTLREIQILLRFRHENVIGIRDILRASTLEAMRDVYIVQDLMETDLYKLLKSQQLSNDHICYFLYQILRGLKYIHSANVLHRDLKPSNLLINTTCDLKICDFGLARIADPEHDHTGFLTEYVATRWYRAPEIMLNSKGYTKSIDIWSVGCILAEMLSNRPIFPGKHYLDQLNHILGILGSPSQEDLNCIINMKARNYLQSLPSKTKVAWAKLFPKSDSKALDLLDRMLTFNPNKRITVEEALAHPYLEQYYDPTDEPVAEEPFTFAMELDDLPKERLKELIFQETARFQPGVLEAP
T1 sequence (P19338 284-710 limits assumed): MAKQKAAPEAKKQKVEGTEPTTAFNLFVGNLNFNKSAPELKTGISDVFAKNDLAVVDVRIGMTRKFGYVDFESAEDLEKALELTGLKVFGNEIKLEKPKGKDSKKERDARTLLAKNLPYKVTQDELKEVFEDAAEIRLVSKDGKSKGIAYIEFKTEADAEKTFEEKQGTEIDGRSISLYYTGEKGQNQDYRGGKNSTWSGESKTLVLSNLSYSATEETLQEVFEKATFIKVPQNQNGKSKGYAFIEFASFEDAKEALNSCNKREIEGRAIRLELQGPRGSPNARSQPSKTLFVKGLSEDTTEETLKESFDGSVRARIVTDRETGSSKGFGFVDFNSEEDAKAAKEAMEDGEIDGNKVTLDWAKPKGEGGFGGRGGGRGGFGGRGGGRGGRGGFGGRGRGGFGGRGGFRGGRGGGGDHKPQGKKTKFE

For the compound `CN1CCCC1CCNC(=O)c1cn2c3c(c(N4CCC(c5cnccn5)C4)c(F)cc3c1=O)Oc1cc3ccccc3cc1-2` (stereo not drawn) [Compound A-1], the remaining activity at 2.5 µM on MAPK1(h) stood at 92%. Further, the “cell localization judged by fluorescence intensity” value in the experiment on A549 cells is recorded as “accumulated in the nucleoli, as well as the cytoplasm/perinuclear space”. The “nucleolin localization in treated cells” value in the experiment on nucleolin in A549 cells is “nucleolin was redistributed to the nucleoplasm”. For the same compound, the “interference with nucleolin/nucleic acid ligand interactions” value in experiment [1] is reported as “interfered with nucleolin/nucleic acid ligand interactions”. Also, the “effect on rRNA synthesis” value in the experiment on rRNA synthesis, HCT-116 is “inhibited rRNA synthesis at two hours and four hours”.

As for `CC(=O)N1CCN(c2ccc3c(=O)c(C(=O)NCCN4CCCC4)c4n(C)c5ccccc5n4c3n2)CC1` [Compound B-1], the remaining activity at 2.5 µM on MAPK1(h) was determined as 94%.
